In the NIST ThermoML archive (doi:10.1021/je100823t):

Assays:
[1] = 101 kPa, Liquid; for viscosity: Capillary tube (Ostwald / Ubbelohde) method; for mass density: Pycnometric method
[2] = xn = mol fraction of the nth substance listed; settings: 101 kPa, Liquid; for viscosity: Capillary tube (Ostwald / Ubbelohde) method; for mass density: Pycnometric method

Cc1ccccc1C [1,2-dimethylbenzene]
[1]
Settings	mass density [kg/m3]	viscosity [mPa·s]
308.15 K	866.7	0.666
318.15 K	858.4	0.591

Cc1ccccc1C [1,2-dimethylbenzene] + CCCCCCO
[2]
Settings	mass density, 308.15 K [kg/m3]	mass density, 318.15 K [kg/m3]	viscosity, 308.15 K [mPa·s]	viscosity, 318.15 K [mPa·s]
x2 = 0	866.7	858.4	0.666	0.591
x2 = 0.0999	860.1	851.7	0.709	0.621
x2 = 0.1999	853.9	845.6	0.789	0.683
x2 = 0.2999	847.9	839.7	0.899	0.768
x2 = 0.4001	842.1	833.9	1.043	0.879
x2 = 0.4997	836.4	828.3	1.23	1.02
x2 = 0.6	830.7	822.7	1.475	1.199
x2 = 0.7	825.1	817.2	1.799	1.431
x2 = 0.8	819.5	811.8	2.217	1.73
x2 = 0.8999	814	806.4	2.738	2.104

Cc1cccc(C)c1 [1,3-dimethylbenzene]
[1]
Settings	mass density [kg/m3]	viscosity [mPa·s]
308.15 K	851.3	0.521
318.15 K	842.7	0.47

Cc1cccc(C)c1 [1,3-dimethylbenzene] + CCCCCCO
[2]
Settings	mass density, 308.15 K [kg/m3]	mass density, 318.15 K [kg/m3]	viscosity, 308.15 K [mPa·s]	viscosity, 318.15 K [mPa·s]
x2 = 0	851.3	842.7	0.521	0.47
x2 = 0.1002	846.4	837.6	0.562	0.502
x2 = 0.2002	841.7	833	0.638	0.561
x2 = 0.3007	837.2	828.7	0.742	0.643
x2 = 0.4001	833	824.6	0.875	0.747
x2 = 0.5	828.8	820.6	1.057	0.885
x2 = 0.5999	824.7	816.6	1.298	1.066
x2 = 0.6999	820.6	812.7	1.629	1.306
x2 = 0.7999	816.6	808.8	2.072	1.623
x2 = 0.8999	812.6	805	2.643	2.031

Cc1ccc(C)cc1 [1,4-dimethylbenzene]
[1]
Settings	mass density [kg/m3]	viscosity [mPa·s]
308.15 K	848.2	0.541
318.15 K	839.5	0.486

Cc1ccc(C)cc1 [1,4-dimethylbenzene] + CCCCCCO
[2], x2 = 0
Settings	mass density [kg/m3]	viscosity [mPa·s]
308.15 K	848.2	0.541
318.15 K	839.5	0.486

CCCCCCO [hexan-1-ol]
[1]
Settings	mass density [kg/m3]	viscosity [mPa·s]
308.15 K	808.5	3.318
318.15 K	801.2	2.518

CCCCCCO [hexan-1-ol] + Cc1ccc(C)cc1
[2]
Settings	mass density, 308.15 K [kg/m3]	mass density, 318.15 K [kg/m3]	viscosity, 308.15 K [mPa·s]	viscosity, 318.15 K [mPa·s]
x1 = 0.1001	843.6	834.9	0.578	0.513
x1 = 0.2001	839.4	830.8	0.647	0.567
x1 = 0.2999	835.4	826.9	0.742	0.643
x1 = 0.4001	831.4	823.1	0.87	0.743
x1 = 0.5009	827.5	819.3	1.046	0.877
x1 = 0.5999	823.7	815.6	1.279	1.051
x1 = 0.6999	819.9	811.9	1.602	1.287
x1 = 0.8	816.1	808.3	2.042	1.604
x1 = 0.9	812.3	804.7	2.618	2.017
x1 = 1	808.5	801.2	3.318	2.518

CCCCCCO [hexan-1-ol] + Cc1cccc(C)c1
[2], x1 = 1
Settings	mass density [kg/m3]	viscosity [mPa·s]
308.15 K	808.5	3.318
318.15 K	801.2	2.518

CCCCCCO [hexan-1-ol] + Cc1ccccc1C
[2], x1 = 1
Settings	mass density [kg/m3]	viscosity [mPa·s]
308.15 K	808.5	3.318
318.15 K	801.2	2.518
